≈ marks a conversion by molar mass, not a printed value.
Experiments:
[1] = species: Rattus norvegicus; assay: Relative bioavailability of prodrugs in rat; type: ADME, organism-based; conditions: in vivo
[2] = (§1) Aqueous solubility; type: physicochemical; conditions: aqueous medium (not further specified); read-out: S
[3] = as §1; type: physicochemical; conditions: aqueous medium (not further specified); read-out: S; remark: listed apart in the source
[4] = Relative bioavailability of oxindole prodrugs in monkey; type: ADME, organism-based; conditions: simiiformes, in vivo
[5] = species: Canis familiaris; assay: Relative bioavailability of oxindole prodrugs in dog; type: ADME, organism-based, Canis lupus familiaris; conditions: in vivo
[6] = as §1; type: physicochemical; conditions: aqueous medium (not further specified); read-out: S; remark: listed apart in the source
[7] = as §1; type: physicochemical; conditions: aqueous medium (not further specified); read-out: S; remark: listed apart in the source
[8] = Ionization constant for the compound was evaluated; type: physicochemical

Relative F% [1]	solubility [2] [µg/mL]	Structure (SMILES)	also measured
0.6	–	CC(C)OC(=O)O/C(=C1/C(=O)N(C(N)=O)c2cc(Cl)c(F)cc21)c1cccs1 (stereo in doubt; 32)	–
0	< 0.06	NC(=O)N1C(=O)/C(=C(\OC(=O)c2cccnc2)c2cccs2)c2cc(F)c(Cl)cc21	solubility [3]: < 0.06 µg/mL
95	0.08 (≈ 0.183 µM)	NC(=O)N1C(=O)/C(=C(/OC(=O)/C=C/C(=O)O)c2cccs2)c2cc(F)c(Cl)cc21	Relative bioavailability [4]: 73; Relative bioavailability [5]: 91; solubility [6]: 24 µg/mL (≈ 54.9 µM); solubility [7]: 2.5 µg/mL (≈ 5.72 µM)
90	–	CC(O)C(=O)OCO/C(=C1/C(=O)N(C(N)=O)c2cc(Cl)c(F)cc21)c1cccs1 (stereo not drawn)	Relative bioavailability [5]: 22; solubility [7]: 0.38 µg/mL (≈ 0.862 µM)
0	–	NC(=O)N1C(=O)/C(=C(\OC(=O)c2ccccc2)c2cccs2)c2cc(F)c(Cl)cc21	–
21	< 0.02	CCOC(=O)/C=C/C(=O)O/C(=C1/C(=O)N(C(N)=O)c2cc(Cl)c(F)cc21)c1cccs1	Relative bioavailability [5]: 6.4
3.7	–	CC(C)(C)C(=O)O/C(=C1\C(=O)N(C(N)=O)c2cc(Cl)c(F)cc21)c1cccs1	–
17	0.013 (≈ 0.0307 µM)	CCCCC(=O)O/C(=C1\C(=O)N(C(N)=O)c2cc(Cl)c(F)cc21)c1cccs1	–
25	17 (≈ 46.6 µM)	O=C(c1cccs1)c1c2cc(F)c(Cl)cc2n2c(=O)[nH]c(=O)oc12	–
100	40 (≈ 118 µM)	NC(=O)N1C(=O)C(=C(O)c2cccs2)c2cc(F)c(Cl)cc21 [ILONIDAP]	Relative bioavailability [4]: 100; Relative bioavailability [5]: 100; pKa [8]: 3.5
17	< 0.02	CC(=O)OCC(=O)OCO/C(=C1/C(=O)N(C(N)=O)c2cc(Cl)c(F)cc21)c1cccs1	–
86	–	CCC(OCc1ccccc1)C(=O)OCO/C(=C1/C(=O)N(C(N)=O)c2cc(Cl)c(F)cc21)c1cccs1 (stereo not drawn)	Relative bioavailability [5]: 12
1.6	< 0.06	NC(=O)N1C(=O)/C(=C(\OC(=O)c2ccccn2)c2cccs2)c2cc(F)c(Cl)cc21	solubility [3]: < 0.06 µg/mL
80	–	C[C@@H](N)C(=O)OCO/C(=C1/C(=O)N(C(N)=O)c2cc(Cl)c(F)cc21)c1cccs1.Cc1ccc(S(=O)(=O)O)cc1	Relative bioavailability [4]: 78; Relative bioavailability [5]: 78; solubility [7]: 150 µg/mL
26	0.009 (≈ 0.0198 µM)	CCOC(=O)OC(C)O/C(=C1/C(=O)N(C(N)=O)c2cc(Cl)c(F)cc21)c1cccs1 (stereo not drawn)	Relative bioavailability [5]: 1.4
4	–	NC(=O)N1C(=O)/C(=C(/OC(=O)/C=C/c2ccccc2)c2cccs2)c2cc(F)c(Cl)cc21	–
9.9	–	CC(C)OC(=O)O/C(=C1/C(=O)N(C(N)=O)c2cc(Cl)c(F)cc21)c1cccs1 (stereo in doubt; 33)	–
42	–	NC(=O)N1C(=O)/C(=C(/OCOC(=O)COCc2ccccc2)c2cccs2)c2cc(F)c(Cl)cc21	–
5.7	–	CCCCCCCCOC(=O)O/C(=C1/C(=O)N(C(N)=O)c2cc(Cl)c(F)cc21)c1cccs1	–
3.5	–	CCOC(=O)CCC(=O)O/C(=C1\C(=O)N(C(N)=O)c2cc(Cl)c(F)cc21)c1cccs1	–
6.6	0.003 (≈ 0.0076 µM)	CCC(=O)O/C(=C1\C(=O)N(C(N)=O)c2cc(Cl)c(F)cc21)c1cccs1	–

The remaining lines, values behind:

Structure (SMILES)	Relative F% [1]	solubility [2] [µg/mL]	also measured
CC(=O)O/C(=C1\C(=O)N(C(N)=O)c2cc(Cl)c(F)cc21)c1cccs1	14	0.011 (≈ 0.0289 µM)	–
CC(C)CC(N)C(=O)OCO/C(=C1/C(=O)N(C(N)=O)c2cc(Cl)c(F)cc21)c1cccs1.Cc1ccc(S(=O)(=O)O)cc1 (stereo not drawn)	81	–	–
COC(C)C(=O)OCO/C(=C1/C(=O)N(C(N)=O)c2cc(Cl)c(F)cc21)c1cccs1 (stereo not drawn)	45	–	–
CC(C)(C)OC(=O)NCC(=O)OCO/C(=C1/C(=O)N(C(N)=O)c2cc(Cl)c(F)cc21)c1cccs1	0	0.06 (≈ 0.114 µM)	–
CC(C)(C)C(=O)OCO/C(=C1/C(=O)N(C(N)=O)c2cc(Cl)c(F)cc21)c1cccs1	0	–	–
CC(NC(=O)OC(C)(C)C)C(=O)OCO/C(=C1/C(=O)N(C(N)=O)c2cc(Cl)c(F)cc21)c1cccs1 (stereo not drawn)	20	–	–
COCC(=O)OC(C)O/C(=C1/C(=O)N(C(N)=O)c2cc(Cl)c(F)cc21)c1cccs1 (stereo not drawn)	47	0.34 (≈ 0.747 µM)	Relative bioavailability [5]: 5.2
Cl.Cl.NCCCCC(N)C(=O)OCO/C(=C1/C(=O)N(C(N)=O)c2cc(Cl)c(F)cc21)c1cccs1 (stereo not drawn)	49	–	–
CCN(CC)C(=O)OCC(=O)OCO/C(=C1/C(=O)N(C(N)=O)c2cc(Cl)c(F)cc21)c1cccs1	36	–	–
CC(=O)OC(C)O/C(=C1/C(=O)N(C(N)=O)c2cc(Cl)c(F)cc21)c1cccs1 (stereo not drawn)	2.3	0.04 (≈ 0.0942 µM)	–
CC(C)OC(=O)OC(C)O/C(=C1/C(=O)N(C(N)=O)c2cc(Cl)c(F)cc21)c1cccs1 (stereo not drawn)	12	–	–
Cc1ccc(S(=O)(=O)O)cc1.NCC(=O)OCO/C(=C1/C(=O)N(C(N)=O)c2cc(Cl)c(F)cc21)c1cccs1	46	–	Relative bioavailability [5]: 78
CC(=O)OCC(=O)O/C(=C1\C(=O)N(C(N)=O)c2cc(Cl)c(F)cc21)c1cccs1	6.6	–	–
CCC(OC)C(=O)OCO/C(=C1/C(=O)N(C(N)=O)c2cc(Cl)c(F)cc21)c1cccs1 (stereo not drawn)	93	–	–
NC(=O)N1C(=O)/C(=C(\OC(=O)c2cccc(C(=O)O)c2)c2cccs2)c2cc(F)c(Cl)cc21	4.2	0.58 (≈ 1.19 µM)	–
CCOC(=O)O/C(=C1\C(=O)N(C(N)=O)c2cc(Cl)c(F)cc21)c1cccs1	3.5	0.023 (≈ 0.056 µM)	–
NC(=O)N1C(=O)/C(=C(\OC(=O)c2ccncc2)c2cccs2)c2cc(F)c(Cl)cc21	2.2	0.32 (≈ 0.721 µM)	solubility [3]: < 0.07 µg/mL
CCCC(OCc1ccccc1)C(=O)OCO/C(=C1/C(=O)N(C(N)=O)c2cc(Cl)c(F)cc21)c1cccs1 (stereo not drawn)	58	–	Relative bioavailability [5]: 7.5
COC(=O)O/C(=C1\C(=O)N(C(N)=O)c2cc(Cl)c(F)cc21)c1cccs1	13	–	–
CC(C)C(N)C(=O)OCO/C(=C1/C(=O)N(C(N)=O)c2cc(Cl)c(F)cc21)c1cccs1.Cc1ccc(S(=O)(=O)O)cc1 (stereo not drawn)	27	–	–
CCN(CC)C(=O)COC(=O)CCC(=O)O/C(=C1/C(=O)N(C(N)=O)c2cc(Cl)c(F)cc21)c1cccs1	16	–	–
COCC(=O)OCO/C(=C1/C(=O)N(C(N)=O)c2cc(Cl)c(F)cc21)c1cccs1	62	–	–
NC(=O)N1C(=O)/C(=C(/OCOC(=O)c2ccccc2)c2cccs2)c2cc(F)c(Cl)cc21	0	–	–
COCC(=O)O/C(=C1\C(=O)N(C(N)=O)c2cc(Cl)c(F)cc21)c1cccs1	8.9	–	–

From ChEMBL document CHEMBL1129235, “Discovery of the hemifumarate and (alpha-L-alanyloxy)methyl ether as prodrugs of an antirheumatic oxindole: prodrugs for the enolic OH group” (J Med Chem, 1996)
